# From patent US10265378B2, “Combination therapy for head and neck cancer” (Cornell University, priority 2014, dated 2019)
# Legend:
# [1] = system: mouse tongue mRNA transcriptome; assay: RNA-Seq analysis of the mRNA transcriptome of mouse tongues; format: in vivo
# Description: RNA-Seq analysis of the mRNA transcriptome. One part of each mouse tongue (same position on each mouse tongue) was snap frozen in liquid N2 and stored at −70° C. until total RNA extraction. Total tissue RNA was extracted and subjected to Next-Generation Sequencing (RNA-Seq) at the Genomics Resources Core Facility, Weill Cornell Medical College. Bioinfomatics analyses were performed using the Tophat and Cufflink software. (supporting information).
# RNA-Seq analysis of mRNA transcriptome. […] The GEO Accession number is GSE54246; embargoed until publication.
# [2] = system: tongue lesions (4-NQO induced oral cavity carcinogenesis); assay: 4-NQO mouse oral cavity carcinogenesis model: gross tongue lesion number and severity
# [3] = system: GO categories in mouse tongue; assay: Gene ontology (GO) analysis of RNA-Seq data; format: in vivo; conditions: compared to the 4-NQO group
# Description: Gene ontology (GO) analysis. Gene ontology (GO) analysis (p-value cutoff: 0.00001), using the ConsensusPathDB online tool, was conducted on the Gene Ontology level 3 of the “Biological Process” domain that has predefined, functional sets for enrichment analysis with default parameter settings.
# [4] = system: pathways (Reactome, KEGG, MouseCyc) in mouse tongue; assay: Pathway enrichment analysis (ConsensusPathDB) of RNA-Seq data
# Description: RNA-Seq analysis of mRNA transcriptome. Representative tongue samples were chosen for the RNA-Seq analysis: untreated (n=5), 4-NQO treatment group (n=3), 4N+B (n=4), 4N+C (n=4), and 4N+B+C (n=5). The extraction of total cellular RNA from mouse tissues was carried out using the RNeasy kit (Qiagen). Subsequent RNA preparation steps were carried out at the Genomics Resources Core Facility of WCMC. The measurement of RNA integrity was determined using the Agilent 2100 BioAnalyzer (Agilent Technologies). Samples with RNA integrity number (RIN) values of 10 were used to construct cDNA libraries. mRNA was purified by using pre-prepared Sera-mag Magnetic Oligo(dT) Beads from Illumina Inc. (SanDiego, Calif.), subjected to thermal fragmentation, and reverse transcribed to first strand cDNA. Following the removal of mRNA strands by RNaseH, first strand cDNAs were used as templates to produce double strand cDNAs, and the overhangs resulting from fragmentation were repaired to blunt ends. An ‘A’ base was added to the 3′ end of cDNAs and subsequently the cDNAs were ligated to Illumina paired end (PE) adaptors that have a single ‘T’ base overhang at their 3′ end. The cDNA-adaptor libraries were purified and enriched by 15 cycles of PCR. The enriched libraries were hybridized to a flow cell and amplified, resulting in ultra-high density flow cells with millions of clusters, each containing about 1,000 copies of the templates. The double stranded cDNA-adaptors were denatured and converted into single strand DNA, and then the template cDNAs were amplified one more time isothermally to produce surface-bound colonies. The clonal DNA clusters were linearized, free 3′ OH ends blocked, denatured, hybridized to sequencing primers, and sequenced. The sequencing was conducted by running 4 samples per lane with 51 pair-end cycles on the HISeq2000/1000. The Sequencing-by-Synthesis process used reversible terminators and a DNA polymerase modified to accept reversible terminator nucleotides. After each synthesis cycle the fluorescence of clusters was imaged with high sensitivity. Then the sequencing images were analyzed in three steps, image analysis, base calling, and sequence analysis. The Tophat software was used to align raw sequencing reads against the UCSC mm9 mouse reference genome, and Cufflinks software was employed to measure transcript abundances in the unit of fragments per kilobase of exon model per million mapped reads (FPKM), as well as to perform statistical analysis on the changes in gene expression. The heat maps for genes of interest were generated by R package software.
# β-catenin = assay: Immunohistochemistry of tongue epithelium: β-catenin; format: in vivo, mouse; conditions: compared to the 4-NQO group; antibody staining
# Description: Immunohistochemistry. Paraffin embedded tongue sections were stained with various antibodies (supporting information).
# Immunohistochemistry. Paraffin-embedded sections (from two to four mice per group) were deparaffinized and rehydrated, and antigen retrieval was performed using an antigen unmasking solution (Vector Laboratories, H-3300). After quenching endogenous peroxidase with 3% H2O2, the tissue sections were blocked with the blocking reagent (from the M.O.M. kit from Vector Laboratories for 4-HNE) or 10% goat serum (Vector Laboratories). Then, tissue sections were incubated with a 4-HNE antibody (1:700; mouse monoclonal antibody; Abcam, ab48506), a β-catenin antibody (1:400; rabbit polyclonal antibody; Abcam, ab6302), or a MMP9 antibody (1:70; rabbit polyclonal antibody; Abcam, ab38898), respectively, overnight at 4° C. The sections were then incubated with secondary antibodies (1:200, anti-mouse IgG from the M.O.M kit for 4-1-INE; ready-to-use anti-rabbit IgG from the Invitrogen SuperPicture kit for β-catenin and MMP9). As a negative control, sections were stained without incubation with primary antibodies. The signals were visualized based on a peroxidase detection mechanism with 3,3-diaminobenzidine (DAB) used as the substrate. Four to five representative areas of each mouse tongue section from two to four mice per group were photographed and analyzed.
# [5] = compared to the 4-NQO group, p<0.05
# [6] = down-regulated vs. 4-NQO group, KEGG
# [7] = down-regulated vs. 4-NQO group, Reactome
# [8] = upregulated vs. 4-NQO group, KEGG
# [9] = upregulated vs. 4-NQO group, MouseCyc
# [10] = upregulated vs. 4-NQO group, Reactome
smiles,measurement,setting,value
O=C(O)c1ccc(-c2ccc3cc(O)c(C45CC6CC(CC(C6)C4)C5)cc3c2)cc1 [CD1530],"transcript levels of DNA replication genes (MCM 2-7 and 10, DNA2, LIG1, ORC1, POLA1, PRIM2)",[1]; compared to the 4-NQO group,significantly lower transcript levels of the majority of these genes
same,number of genes with decreased transcript levels,[1]; [5],531
same,number of genes with increased transcript levels,[1]; [5],987
same,number of genes with significantly different transcript levels,[1]; [5],1518
same,Cyp26a1 mRNA level,"[1]; greater than in other groups, RARγ target gene",about 20 fold
same,number of tongue lesions (gross tongue lesion multiplicity),"[2]; C57BL/6 female mice, 4-NQO 10 weeks, then drug in 15 week post 4-NQO period, bexarotene 300 mg/kg diet, CD1530 […]100 ml drinking water, 4-NQO group 5.9±3.2",3.9±1.7
same,average severity of tongue lesions (grade 0-4),"[2]; same model, 4-NQO group 2.8±0.8",1.6±0.8
same,"GO categories related to cell cycle, DNA replication, and mitosis",[3],most under-expressed
same,over-represented GO categories,[3],"over-representation of many GO categories, with some of them involved in lipid metabolism"
same,cytochrome P450 enzymes (pathway analysis),[4]; compared to the 4-NQO group,significantly elevated
same,"candidates contained, pathway Cell cycle-Mus musculus (mouse)",[4]; [6],23 (18.1%)
same,"candidates contained, pathway DNA replication-Mus musculus (mouse)",[4]; [6],9 (25.0%)
same,"candidates contained, pathway ECM-receptor interaction-Mus musculus (mouse)",[4]; [6],13 (15.1%)
same,"candidates contained, pathway Pathways in cancer-Mus musculus (mouse)",[4]; [6],27 (8.4%)
same,"candidates contained, pathway Small cell lung cancer-Mus musculus (mouse)",[4]; [6],13 (14.9%)
same,"candidates contained, pathway p53 signaling pathway-Mus musculus (mouse)",[4]; [6],12 (17.4%)
same,"candidates contained, pathway Activation of ATR in response to replication stress",[4]; [7],11 (28.9%)
same,"candidates contained, pathway Activation of the pre-replicative complex",[4]; [7],11 (37.9%)
same,"candidates contained, pathway Assembly of the pre-replicative complex",[4]; [7],9 (40.9%)
same,"candidates contained, pathway Cell Cycle",[4]; [7],54 (17.8%)
same,"candidates contained, pathway Cell Cycle Checkpoints",[4]; [7],19 (24.7%)
same,"candidates contained, pathway Cell Cycle, Mitotic",[4]; [7],52 (19.4%)
same,"candidates contained, pathway Cyclin A/B1 associated events during G2/M transition",[4]; [7],6 (37.5%)
same,"candidates contained, pathway Cyclin B2 mediated events",[4]; [7],4 (80.0%)
same,"candidates contained, pathway DNA Replication",[4]; [7],41 (26.1%)
same,"candidates contained, pathway DNA Replication Pre-Initiation",[4]; [7],12 (33.3%)
same,"candidates contained, pathway DNA strand elongation",[4]; [7],8 (25.8%)
same,"candidates contained, pathway G1/S Transition",[4]; [7],14 (22.6%)
same,"candidates contained, pathway G2/M Checkpoints",[4]; [7],14 (31.1%)
same,"candidates contained, pathway M Phase",[4]; [7],27 (27.3%)
same,"candidates contained, pathway M/G1 Transition",[4]; [7],12 (33.3%)
same,"candidates contained, pathway Mitotic G1-G1/S phases",[4]; [7],16 (21.9%)
same,"candidates contained, pathway Mitotic M-M/G1 phases",[4]; [7],39 (28.9%)
same,"candidates contained, pathway Mitotic Prometaphase",[4]; [7],26 (27.4%)
same,"candidates contained, pathway Orc1 removal from chromatin",[4]; [7],8 (28.6%)
same,"candidates contained, pathway Regulation of DNA replication",[4]; [7],10 (33.3%)
same,"candidates contained, pathway Removal of licensing factors from origins",[4]; [7],10 (33.3%)
same,"candidates contained, pathway S Phase",[4]; [7],12 (17.4%)
same,"candidates contained, pathway Switching of origins to a post-replicative state",[4]; [7],8 (28.6%)
same,"candidates contained, pathway Synthesis of DNA",[4]; [7],11 (20.4%)
same,"candidates contained, pathway Unwinding of DNA",[4]; [7],6 (54.5%)
same,"candidates contained, pathway Arachidonic acid metabolism-Mus musculus (mouse)",[4]; [8],25 (26.6%)
same,"candidates contained, pathway Ascorbate and aldarate metabolism-Mus musculus (mouse)",[4]; [8],11 (42.3%)
same,"candidates contained, pathway Bile secretion-Mus musculus (mouse)",[4]; [8],23 (32.4%)
same,"candidates contained, pathway Biosynthesis of unsaturated fatty acids-Mus musculus (mouse)",[4]; [8],10 (40.0%)
same,"candidates contained, pathway Complement and coagulation cascades-Mus musculus (mouse)",[4]; [8],38 (50.0%)
same,"candidates contained, pathway Drug metabolism-cytochrome P450-Mus musculus (mouse)",[4]; [8],52 (59.8%)
same,"candidates contained, pathway Drug metabolism-other enzymes-Mus musculus (mouse)",[4]; [8],22 (39.3%)
same,"candidates contained, pathway Fatty acid metabolism-Mus musculus (mouse)",[4]; [8],13 (26.5%)
same,"candidates contained, pathway Glycine, serine and threonine metabolism-Mus musculus (mouse)",[4]; [8],12 (30.8%)
same,"candidates contained, pathway Linoleic acid metabolism-Mus musculus (mouse)",[4]; [8],24 (53.3%)
same,"candidates contained, pathway Maturity onset diabetes of the young-Mus musculus (mouse)",[4]; [8],11 (42.3%)
same,"candidates contained, pathway Metabolic pathways-Mus musculus (mouse)",[4]; [8],160 (13.4%)
same,"candidates contained, pathway Metabolism of xenobiotics by cytochrome P450-Mus musculus (mouse)",[4]; [8],50 (55.6%)
same,"candidates contained, pathway PPAR signaling pathway-Mus musculus (mouse)",[4]; [8],24 (29.6%)
same,"candidates contained, pathway Pentose and glucuronate interconversions-Mus musculus (mouse)",[4]; [8],11 (34.4%)
same,"candidates contained, pathway Peroxisome-Mus musculus (mouse)",[4]; [8],18 (22.8%)
same,"candidates contained, pathway Primary bile acid biosynthesis-Mus musculus (mouse)",[4]; [8],8 (50.0%)
same,"candidates contained, pathway Propanoate metabolism-Mus musculus (mouse)",[4]; [8],11 (34.4%)
same,"candidates contained, pathway Retinol metabolism-Mus musculus (mouse)",[4]; [8],42 (53.2%)
same,"candidates contained, pathway Serotonergic synapse-Mus musculus (mouse)",[4]; [8],24 (17.3%)
same,"candidates contained, pathway Steroid hormone biosynthesis-Mus musculus (mouse)",[4]; [8],19 (34.5%)
same,"candidates contained, pathway Tryptophan metabolism-Mus musculus (mouse)",[4]; [8],16 (36.4%)
same,"candidates contained, pathway Tyrosine metabolism-Mus musculus (mouse)",[4]; [8],11 (28.2%)
same,"candidates contained, pathway beta-Alanine metabolism-Mus musculus (mouse)",[4]; [8],10 (33.3%)
same,"candidates contained, pathway bupropion degradation",[4]; [9],29 (74.4%)
same,"candidates contained, pathway nicotine degradation II",[4]; [9],41 (65.1%)
same,"candidates contained, pathway nicotine degradation III",[4]; [9],35 (63.6%)
same,"candidates contained, pathway Activation of C3 and C5",[4]; [10],5 (83.3%)
same,"candidates contained, pathway Bile acid and bile salt metabolism",[4]; [10],19 (50.0%)
same,"candidates contained, pathway Biological oxidations",[4]; [10],64 (40.5%)
same,"candidates contained, pathway Chylomicron-mediated lipid transport",[4]; [10],11 (61.1%)
same,"candidates contained, pathway Common Pathway",[4]; [10],9 (69.2%)
same,"candidates contained, pathway Complement cascade",[4]; [10],11 (39.3%)
same,"candidates contained, pathway Cytochrome P450-arranged by substrate type",[4]; [10],42 (51.2%)
same,"candidates contained, pathway Formation of Fibrin Clot (Clotting Cascade)",[4]; [10],18 (52.9%)
same,"candidates contained, pathway Gamma-carboxylation of protein precursors",[4]; [10],6 (66.7%)
same,"candidates contained, pathway Gamma-carboxylation, transport, and amino-terminal cleavage of proteins",[4]; [10],6 (60.0%)
same,"candidates contained, pathway HDL-mediated lipid transport",[4]; [10],9 (52.9%)
same,"candidates contained, pathway Intrinsic Pathway",[4]; [10],10 (50.0%)
same,"candidates contained, pathway Lipid digestion, mobilization, and transport",[4]; [10],18 (36.7%)
same,"candidates contained, pathway Lipoprotein metabolism",[4]; [10],16 (51.6%)
same,"candidates contained, pathway Metabolism",[4]; [10],181 (18.6%)
same,"candidates contained, pathway Metabolism of amino acids and derivatives",[4]; [10],34 (27.4%)
same,"candidates contained, pathway Metabolism of lipids and lipoproteins",[4]; [10],57 (21.8%)
same,"candidates contained, pathway Miscellaneous substrates",[4]; [10],10 (55.6%)
same,"candidates contained, pathway Phase 1-Functionalization of compounds",[4]; [10],51 (51.5%)
same,"candidates contained, pathway Phase II conjugation",[4]; [10],14 (23.3%)
same,"candidates contained, pathway Phenylalanine and tyrosine catabolism",[4]; [10],7 (87.5%)
same,"candidates contained, pathway Platelet degranulation",[4]; [10],19 (29.7%)
same,"candidates contained, pathway Recycling of bile acids and salts",[4]; [10],7 (50.0%)
same,"candidates contained, pathway Removal of aminoterminal propeptides from gamma-carboxylated proteins",[4]; [10],6 (66.7%)
same,"candidates contained, pathway Response to elevated platelet cytosolic Ca2+",[4]; [10],19 (27.1%)
same,"candidates contained, pathway Synthesis of bile acids and bile salts",[4]; [10],15 (55.6%)
same,"candidates contained, pathway Synthesis of bile acids and bile salts via 7alpha-hydroxycholesterol",[4]; [10],15 (65.2%)
same,"candidates contained, pathway Synthesis of bile acids and bile salts via 24-hydroxycholesterol",[4]; [10],11 (61.1%)
same,"candidates contained, pathway Synthesis of bile acids and bile salts via 27-hydroxycholesterol",[4]; [10],8 (57.1%)
same,"candidates contained, pathway Terminal pathway of complement",[4]; [10],5 (83.3%)
same,"candidates contained, pathway Transport of gamma-carboxylated protein precursors from the ER to the Golgi apparatus",[4]; [10],6 (75.0%)
same,"candidates contained, pathway Xenobiotics",[4]; [10],31 (81.6%)
same,β-catenin protein levels in the tongue epithelium,β-catenin,lower β-catenin protein levels
